Reference: US9890185B2, “Urea derivatives useful as kinase inhibitors” (Respivert Limited, priority 2013, dated 2018)

Experiments:
PBMCs = assay: LPS-induced IL-8 release in PBMC cells (assay b); type: cell-based, human; conditions: Homo sapiens, PBMC; LPS-stimulated PBMCs; read-out: IC50 Values for Inhibition of Cytokine Release, PBMCs IL-8
Method: Peripheral blood mononuclear cells (PBMCs) from healthy subjects are separated from whole blood using a density gradient (Lymphoprep, Axis-Shield Healthcare). The PBMCs are seeded in 96 well plates and treated with compounds at the desired concentration for 2 hours before addition of 1 ng/mL LPS (Escherichia Coli 0111:B4 from Sigma Aldrich) for 24 hours under normal tissue culture conditions (37° C., 5% CO2). The supernatant is harvested for determination of IL-8 and TNFα concentrations by sandwich ELISA (Duo-set, R&D systems) and read on the fluorescence microplate reader (Varioskan® Flash, ThermoFisher Scientific). The concentration at 50% inhibition (IC50) of IL-8 and TNFα production is calculated from the dose response curve.

GSK 3α = GSK 3α (Homo sapiens (Human), UniProt P49840); assay: GSK 3α enzyme inhibition (FRET, Z-LYTE, Method 2); type: biochemical; conditions: read-out: IC50 Values for Enzyme Inhibition, GSK3α
Chain of GSK 3α (P49840 whole entry): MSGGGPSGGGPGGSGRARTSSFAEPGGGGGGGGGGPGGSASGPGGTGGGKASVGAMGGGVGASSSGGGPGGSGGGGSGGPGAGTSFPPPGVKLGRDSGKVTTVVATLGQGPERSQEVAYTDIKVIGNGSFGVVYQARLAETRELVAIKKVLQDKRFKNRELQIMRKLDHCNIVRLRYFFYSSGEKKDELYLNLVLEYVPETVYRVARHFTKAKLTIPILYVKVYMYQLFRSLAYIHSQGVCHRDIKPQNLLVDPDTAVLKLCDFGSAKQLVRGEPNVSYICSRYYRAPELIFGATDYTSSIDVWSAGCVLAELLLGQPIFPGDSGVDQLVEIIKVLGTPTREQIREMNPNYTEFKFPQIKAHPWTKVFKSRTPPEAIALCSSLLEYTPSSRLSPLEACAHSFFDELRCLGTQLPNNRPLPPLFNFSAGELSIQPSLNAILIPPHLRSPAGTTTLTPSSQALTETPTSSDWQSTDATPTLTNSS
Method: The enzyme inhibitory activities of compounds disclosed herein are determined by FRET using synthetic peptides labelled with both donor and acceptor fluorophores (Z-LYTE, Invitrogen Ltd., Paisley, UK).
The following two assay variants can be used for determination of GSK 3α inhibition.
The inhibitory activities of compounds of the invention against the GSK 3α enzyme isoform (Invitrogen), are evaluated by determining the level of activation/phosphorylation of the target peptide. The GSK3-α protein (500 ng/mL, 2.5 μL) is mixed with the test compound (2.5 μL at either 4 μg/mL, 0.4 μg/mL, 0.04 μg/mL, or 0.004 μg/mL) for 2 hr at RT. The FRET peptide (8 μM, 2.5 μL), which is a phosphorylation target for GSK3α, and ATP (40 μM, 2.5 μL) are then added to the enzyme/compound mixture and the resulting mixture incubated for 1 hr. Development reagent (protease, 5 μL) is added for 1 hr prior to detection in a fluorescence microplate reader (Varioskan® Flash, ThermoFisher Scientific).
In all cases, the site-specific protease cleaves non-phosphorylated peptide only and eliminates the FRET signal. Phosphorylation levels of each reaction are calculated using the ratio of coumarin emission (donor) over fluorescein emission (acceptor), for which high ratios indicate high phosphorylation and low ratios indicate low phosphorylation levels. The percentage inhibition of each reaction is calculated relative to non-inhibited control and the 50% inhibitory concentration (IC50 value) is then calculated from the concentration-response curve.
This method follows the same steps as Method 1 above, but utilises a shorter period of mixing of the test compound (105 minutes instead of 2 hours) with the GSK3-α protein.

| SMILES | IC50 (PBMCs) | IC50 (GSK 3α) |
| --- | --- | --- |
| COc1cc(Nc2cc(Oc3ccc(NC(=O)Nc4cc(C(C)(C)C)cc(P(C)(C)=O)c4OC)c4ccccc34)ccn2)cc(C(=O)NCCN2CC[S+]([O-])CC2)c1 [38(am), 3-((4-((4-(3-(5-(tert-Butyl)-3-(dimethylphosphoryl)-2-methoxyphenyl)ureido)naphthalen-1-yl)oxy)pyridin-2-yl)amino)-5-methoxy-N-(2-(1-oxidothiomorpholino)ethyl)benzamide] | 6.2 nM | 1500 nM |
| COc1cc(Nc2cc(Oc3ccc(NC(=O)Nc4cc(C(C)(C)C)cc(S(C)(=O)=O)c4OC)c4ccccc34)ccn2)ccc1C(=O)NCCN1CCOCC1 [38(ap), 4-((4-((4-(3-(5-(tert-Butyl)-2-methoxy-3-(methylsulfonyl)phenyl)ureido)naphthalen-1-yl)oxy)pyridin-2-yl)amino)-2-methoxy-N-(2-morpholinoethyl)benzamide] | 4.5 nM | > 5800 nM |
| COc1c(NC(=O)Nc2ccc(Oc3ccnc(Nc4ccccc4)c3)c3ccccc23)cc(C(C)(C)C)cc1[S+](C)[O-] (stereo not shown) [38(b1), 1-(5-(tert-Butyl)-2-methoxy-3-(methylsulfinyl)phenyl)-3-(4-((2-(phenylamino)pyridin-4-yl)oxy)naphthalen-1-yl)urea] | 8.3 nM | > 9660 nM |
| COc1cccc(Nc2cc(Oc3ccc(NC(=O)Nc4cc(C(C)(C)C)cc(CC(=O)N(C)C)c4OC)c4ccccc34)ccn2)c1 [38(i), 2-(5-(tert-Butyl)-2-methoxy-3-(3-(4-((2-((3-methoxyphenyl)amino)pyridin-4-yl)oxy)naphthalen-1-yl)ureido)phenyl)-N,N-dimethylacetamide] | 11.4 nM | > 15400 nM |
| COc1cccc(Nc2cc(Oc3ccc(NC(=O)Nc4cc(C(C)(C)C)cc(CC(=O)N5CCOCC5)c4OC)c4ccccc34)ccn2)c1 [38(j), 1-(5-(tert-Butyl)-2-methoxy-3-(2-morpholino-2-oxoethyl)phenyl)-3-(4-((2-((3-methoxyphenyl)amino)pyridin-4-yl)oxy)naphthalen-1-yl)urea] | 12.5 nM | > 14500 nM |
| COc1c(CC(N)=O)cc(C(C)(C)C)cc1NC(=O)Nc1ccc(Oc2ccnc(Nc3ccccc3)c2)c(F)c1F [38(l), 2-(5-(tert-Butyl)-3-(3-(2,3-difluoro-4-((2-(phenylamino)pyridin-4-yl)oxy)phenyl)ureido)-2-methoxyphenyl)acetamide] | 5.9 nM | 472 nM |
| COc1c(CNC(C)=O)cc(C(C)(C)C)cc1NC(=O)Nc1ccc(Oc2ccnc(Nc3cc(C)cc(C)c3)c2)c2ccccc12 [38(p), N-(5-(tert-Butyl)-3-(3-(4-((2-((3,5-dimethylphenyl)amino)pyridin-4-yl)oxy)naphthalen-1-yl)ureido)-2-methoxybenzyl)acetamide] | 7.2 nM | > 15800 nM |
| COCCOCCOCCNC(=O)c1cc(Nc2cc(Oc3ccc(NC(=O)Nc4cc(C(C)(C)C)cc(C[S+](C)[O-])c4OC)c4ccccc34)ccn2)cc(OC)c1 (stereo not shown) [38(z), 3-((4-((4-(3-(5-(tert-Butyl)-2-methoxy-3-((methylsulfinyl)methyl)phenyl)ureido)naphthalen-1-yl)oxy)pyridin-2-yl)amino)-5-methoxy-N-(2-(2-(2-methoxyethoxy)ethoxy)ethyl)benzamide] | 0.6 nM | 789 nM |
| COc1cc(Nc2cc(Oc3ccc(NC(=O)Nc4cc(C(C)(C)C)cc(P(C)(C)=O)c4OC)c4ccccc34)ccn2)ccc1C(=O)N1CCN(C)CC1 [79(a), 1-(5-tert-Butyl-3-dimethylphosphoryl-2-methoxy-phenyl)-3-[4-[[2-[3-methoxy-4-(4-methylpiperazine-1-carbonyl)anilino]-4-pyridyl]oxy]-1-naphthyl]urea] | 5.1 nM | 480 nM |
| COc1cc(Nc2cc(Oc3ccc(NC(=O)Nc4cc(C(C)(C)C)cc(P(C)(C)=O)c4OC)c4ccccc34)ccn2)ccc1C(=O)NC1CCN(C)CC1 [79(b), 4-[[4-[[4-[(5-tert-Butyl-3-dimethylphosphoryl-2-methoxy-phenyl)carbamoylamino]-1-naphthyl]oxy]-2-pyridyl]amino]-2-methoxy-N-(1-methyl-4-piperidyl)benzamide] | 7.4 nM | 1880 nM |
| COc1cc(Nc2cc(Oc3ccc(NC(=O)Nc4cc(C(C)(C)C)cc(P(C)(C)=O)c4OC)c4ccccc34)ccn2)ccc1C(=O)NCCN(C)C [79(c), 4-[[4-[[4-[(5-tert-Butyl-3-dimethylphosphoryl-2-methoxy-phenyl)carbamoylamino]-1-naphthyl]oxy]-2-pyridyl]amino]-N-(2-dimethylaminoethyl)-2-methoxy-benzamide] | 7 nM | 1770 nM |
| CNC(=O)c1cc(Nc2cc(Oc3ccc(NC(=O)Nc4cc(C(C)(C)C)cc(P(C)(C)=O)c4OC)c4ccccc34)ccn2)cc(OCCN2CCOCC2)c1 [79(f), 3-[[4-[[4-[(5-tert-Butyl-3-dimethylphosphoryl-2-methoxy-phenyl)carbamoylamino]-1-naphthyl]oxy]-2-pyridyl]amino]-N-methyl-5-(2-morpholinoethoxy)benzamide] | 3.9 nM | 957 nM |
| COCCOCCOCCOc1cc(Nc2cc(Oc3ccc(NC(=O)Nc4cc(C(C)(C)C)cc(P(C)(C)=O)c4OC)c4ccccc34)ncn2)cc(OC)c1 [Example 4, 1-(5-(tert-Butyl)-3-(dimethylphosphoryl)-2-methoxyphenyl)-3-(4-((6-((3-methoxy-5-(2-(2-(2-methoxyethoxy)ethoxy)ethoxy)phenyl)amino)pyrimidin-4-yl)oxy)naphthalen-1-yl)urea] | 5.6 nM | 4100 nM |
| COc1cc(Nc2nccc(Oc3ccc(NC(=O)Nc4cc(C(C)(C)C)cc(P(C)(C)=O)c4OC)c4ccccc34)n2)cc(P(C)(C)=O)c1 [Example 21, 1-(5-(tert-Butyl)-3-(dimethylphosphoryl)-2-methoxyphenyl)-3-(4-((2-((3-(dimethylphosphoryl)-5-methoxyphenyl)amino)pyrimidin-4-yl)oxy)naphthalen-1-yl)urea] | 3.2 nM | 282 nM |
| COc1c(NC(=O)Nc2ccc(Oc3ccnc(Nc4cccc(N=S(C)(C)=O)c4)n3)c3ccccc23)cc(C(C)(C)C)cc1P(C)(C)=O [Example 22, 1-(5-(tert-Butyl)-3-(dimethylphosphoryl)-2-methoxyphenyl)-3-(4-((2-((3-((dimethyl(oxo)-lambda-6-sulfanylidene)amino)phenyl)amino)pyrimidin-4-yl)oxy)naphthalen-1-yl)urea] | 3.3 nM | 280 nM |
| COc1c(NC(=O)Nc2ccc(Oc3ccnc(Nc4ccccc4)c3)c3ccccc23)cc(C(C)(C)C)cc1C(=O)NCCN1CCNCC1 [Example 23, 5-(tert-Butyl)-2-methoxy-3-(3-(4-((2-(phenylamino)pyridin-4-yl)oxy)naphthalen-1-yl)ureido)-N-(2-(piperazin-1-yl)ethyl)benzamide] | 6.8 nM | 7940 nM |
| COc1c(NC(=O)Nc2ccc(Oc3ccnc(NC(=O)CN4C[C@@H](C)O[C@@H](C)C4)c3)c3ccccc23)cc(C(C)(C)C)cc1P(C)(C)=O [Example 26, N-(4-((4-(3-(5-(tert-Butyl)-3-(dimethylphosphoryl)-2-methoxyphenyl)ureido)naphthalen-1-yl)oxy)pyridin-2-yl)-2-(cis-2,6-dimethylmorpholino)acetamide] | 2.2 nM | 249 nM |
| COc1c(NC(=O)Nc2ccc(Oc3ccnc(NC4CCOCC4)n3)c3ccccc23)cc(C(C)(C)C)cc1P(C)(C)=O [Example 31, 1-(5-(tert-Butyl)-3-(dimethylphosphoryl)-2-methoxyphenyl)-3-(4-((2-((tetrahydro-2H-pyran-4-yl)amino)pyrimidin-4-yl)oxy)naphthalen-1-yl)urea] | 2.6 nM | 186 nM |
| CC(C)(C)c1cc(NC(=O)Nc2ccc(Oc3ccnc(Nc4ccccc4)c3)c3ccccc23)c(O)c(P(C)(C)=O)c1 [Example 39, 1-(5-(tert-Butyl)-3-(dimethylphosphoryl)-2-hydroxyphenyl)-3-(4-((2-(phenylamino)pyridin-4-yl)oxy)naphthalen-1-yl)urea] | 31.4 nM | > 12600 nM |
| COc1c(NC(=O)Nc2ccc(Oc3ccnc(Nc4cc(C)c5[nH]ncc5c4)n3)c3ccccc23)cc(C(C)(C)C)cc1[S+](C)[O-] (stereo not shown) [Example 74, 1-(5-(tert-Butyl)-2-methoxy-3-(methylsulfinyl)phenyl)-3-(4-((2-((7-methyl-1H-indazol-5-yl)amino)pyrimidin-4-yl)oxy)naphthalen-1-yl)urea] | 1.6 nM | 1230 nM |
